# According to patent US9556228B2 (Universitaet Leipzig, priority 2011, dated 2017):
# Peptide text beside a SMILES is read from it.
# Tests used:
# Type in all cases: cell-based
# [1] = system: Staphylococcus aureus DSM 1104/ATCC 25923; details: for MIC S. aureus ATCC 25923: DSM 1104; for Improvement over Native Sequence (SEQ No. 2) S. aureus ATCC 25923: fold, from MIC in 1/8 MHB
# Experimental: (§1) The minimum inhibitory concentrations (MIC) of the peptides were determined in a double assay of triplicates using a positive control sample (gentamycin) and a negative control sample (0.9% NaCl solution), according to a modified protocol from Wiegand et al. (Wiegand, 2008).
# (§2) For this purpose, the peptides were dissolved in water and were diluted in a double dilution series with 1/8 MH (eight-fold diluted Mueller-Hinton-Medium—2.6 g/L, Merck) in sterile 96-well, plates (Greiner Bio-One GmbH) in twelve dilution steps from 128 μg/mL to 62.5 ng/mL. Overnight cultures were adjusted using ⅛ MHB to approximately 1.5×10^7 colony forming units per mL. Of these, 50 μL of peptide solution per well was mixed with 50 μL bacteria solution each to obtain an initial concentration of […] bacteria per well. After 20 hours of incubation at 37′C, the absorption was determined at 595 nm (microplate reader, Wallac Victor3, Perkin Elmer). The minimum inhibitory concentration was identified as the lowest peptide concentration at which no bacterial growth could be detected.
# (§3) In the experiment, the antibacterial activity of the peptides according to the invention in relation to the following bacterial strains was analyzed: Pseudomonas aeruginosa PAO1 (wt strain), Pseudomonas aeruginosa DSM 9644, Staphylococcus aureus DSM 1104/ATCC 25923, Staphylococcus aureus ATCC 6247, Escherichia coli UB 1005 (F—, nalA37, metB1) and Escherichia coli ATCC25922.
# [2] = system: Pseudomonas aeruginosa PAO1 (wt strain); details: for Improvement over Native Sequence (SEQ No. 2) P. aeruginosa PAO1 wt: fold, from MIC in 1/8 MHB
# Experimental: as §1, §2, §3
# Escherichia coli UB 1005 = experiment: Minimum inhibitory concentration (MIC), broth microdilution; details: for MIC E. coli UB1005: 1/8 MHB, Table 4; for Improvement over Native Sequence (SEQ No. 2) E. coli UB1005: fold, from MIC in 1/8 MHB
# Experimental: as §1, §2, §3
Structure (SMILES),MIC S. aureus ATCC 25923 [1] [µg/mL],Improvement over Native Sequence (SEQ No. 2) S. aureus ATCC 25923 [1],MIC P. aeruginosa PAO1 wt [2] [µg/mL],Improvement over Native Sequence (SEQ No. 2) P. aeruginosa PAO1 wt [2],MIC E. coli UB1005 (Escherichia coli UB 1005) [µg/mL],Improvement over Native Sequence (SEQ No. 2) E. coli UB1005 (Escherichia coli UB 1005)
CC[C@H](C)[C@H](NC(=O)[C@H](Cc1ccc(O)cc1)NC(=O)[C@@H](NC(=O)[C@@H]1CCCN1C(=O)[C@H](CCCNC(=N)N)NC(=O)[C@H](CC(N)=O)NC(=O)[C@H](Cc1c[nH]c2ccccc12)NC(=O)CN)C(C)C)C(=O)N1CCC[C@H]1C(=O)N[C@@H](CCC(N)=O)C(=O)N1CCC[C@H]1C(=O)N[C@@H](CCCNC(=N)N)C(=O)N1CCC[C@H]1C(=O)N1CCC[C@H]1C(=O)N[C@@H](Cc1c[nH]cn1)C(=O)N1CCC[C@H]1C(=O)N[C@@H](CCCNC(=N)N)C(=O)N[C@@H](CC(C)C)C(N)=O [compound 54] (H-GWNRPVYIPQPRPPHPRL-NH2; N-terminus assumed),63,4,64,8,1.25,4
CC[C@H](C)[C@H](NC(=O)[C@H](Cc1ccc(O)cc1)NC(=O)[C@@H](NC(=O)[C@@H]1CCCN1C(=O)[C@H](CCCNC(=N)N)NC(=O)[C@H](CC(N)=O)NC(=O)[C@H](CCCNC(=N)N)NC(=O)CN)C(C)C)C(=O)N1CCC[C@H]1C(=O)N[C@@H](CCC(N)=O)C(=O)N1CCC[C@H]1C(=O)N[C@@H](CCCNC(=N)N)C(=O)N1CCC[C@H]1C(=O)N1CCC[C@H]1C(=O)N[C@@H](Cc1c[nH]cn1)C(=O)N1CCC[C@H]1C(=O)N[C@@H](CCCNC(=N)N)C(=O)N[C@@H](CC(C)C)C(N)=O [compound 55] (H-GRNRPVYIPQPRPPHPRL-NH2; N-terminus assumed),32,8,64 to 128,4-8,0.625,8
CC[C@H](C)[C@H](NC(=O)[C@H](Cc1ccc(O)cc1)NC(=O)[C@@H](NC(=O)[C@H](CS)NC(=O)[C@H](CCCNC(=N)N)NC(=O)[C@H](CC(N)=O)NC(=O)[C@H](CC(N)=O)NC(=O)CN)C(C)C)C(=O)N1CCC[C@H]1C(=O)N[C@@H](CCC(N)=O)C(=O)N1CCC[C@H]1C(=O)N[C@@H](CCCNC(=N)N)C(=O)N1CCC[C@H]1C(=O)N1CCC[C@H]1C(=O)N[C@@H](Cc1c[nH]cn1)C(=O)N1CCC[C@H]1C(=O)N[C@@H](CCCNC(=N)N)C(=O)N[C@@H](CC(C)C)C(N)=O [compound 56] (H-GNNRCVYIPQPRPPHPRL-NH2; N-terminus assumed),31,8,125,4,10,1
CC[C@H](C)[C@H](NC(=O)[C@H](Cc1ccc(O)cc1)NC(=O)[C@@H](NC(=O)[C@H](CCCNC(=N)N)NC(=O)[C@H](CCCNC(=N)N)NC(=O)[C@H](CC(N)=O)NC(=O)[C@H](CC(N)=O)NC(=O)CN)C(C)C)C(=O)N1CCC[C@H]1C(=O)N[C@@H](CCC(N)=O)C(=O)N1CCC[C@H]1C(=O)N[C@@H](CCCNC(=N)N)C(=O)N1CCC[C@H]1C(=O)N1CCC[C@H]1C(=O)N[C@@H](Cc1c[nH]cn1)C(=O)N1CCC[C@H]1C(=O)N[C@@H](CCCNC(=N)N)C(=O)N[C@@H](CC(C)C)C(N)=O [compound 57] (H-GNNRRVYIPQPRPPHPRL-NH2; N-terminus assumed),32,8,64,8,5,1
CC(C)C[C@H](NC(=O)[C@H](CCCNC(=N)N)NC(=O)[C@@H]1CCCN1C(=O)[C@H](Cc1c[nH]cn1)NC(=O)[C@@H]1CCCN1C(=O)[C@@H]1CCCN1C(=O)[C@H](CCCNC(=N)N)NC(=O)[C@@H]1CCCN1C(=O)[C@H](CCC(N)=O)NC(=O)[C@@H]1CCCN1C(=O)[C@H](CCCNC(=N)N)NC(=O)[C@H](Cc1ccc(O)cc1)NC(=O)[C@@H](NC(=O)[C@@H]1CCCN1C(=O)[C@H](CCCNC(=N)N)NC(=O)[C@H](CC(N)=O)NC(=O)[C@H](CC(N)=O)NC(=O)CN)C(C)C)C(N)=O [compound 58] (H-GNNRPVYRPQPRPPHPRL-NH2; N-terminus assumed),63,4,64,8,0.313,16
CC[C@H](C)[C@H](NC(=O)[C@H](Cc1ccc(O)cc1)NC(=O)[C@@H](NC(=O)[C@@H]1CCCN1C(=O)[C@H](CCCNC(=N)N)NC(=O)[C@H](CC(N)=O)NC(=O)[C@H](CC(N)=O)NC(=O)CN)C(C)C)C(=O)N1CCC[C@H]1C(=O)N[C@@H](CCC(N)=O)C(=O)N1CCC[C@H]1C(=O)N[C@@H](CCCNC(=N)N)C(=O)N[C@@H](CCCNC(=N)N)C(=O)N1CCC[C@H]1C(=O)N[C@@H](Cc1c[nH]cn1)C(=O)N1CCC[C@H]1C(=O)N[C@@H](CCCNC(=N)N)C(=O)N[C@@H](CC(C)C)C(N)=O [compound 59] (H-GNNRPVYIPQPRRPHPRL-NH2; N-terminus assumed),31,8,125,4,10,1
CC[C@H](C)[C@H](NC(=O)[C@H](Cc1ccc(O)cc1)NC(=O)[C@@H](NC(=O)[C@@H]1CCCN1C(=O)[C@H](CCCNC(=N)N)NC(=O)[C@H](CC(N)=O)NC(=O)[C@H](CC(N)=O)NC(=O)CN)C(C)C)C(=O)N1CCC[C@H]1C(=O)N[C@@H](CCC(N)=O)C(=O)N1CCC[C@H]1C(=O)N[C@@H](CCCNC(=N)N)C(=O)N1CCC[C@H]1C(=O)N[C@@H](CS)C(=O)N[C@@H](Cc1c[nH]cn1)C(=O)N1CCC[C@H]1C(=O)N[C@@H](CCCNC(=N)N)C(=O)N[C@@H](CC(C)C)C(N)=O [compound 60] (H-GNNRPVYIPQPRPCHPRL-NH2; N-terminus assumed),16,16,250,2,20,0
CC[C@H](C)[C@H](NC(=O)[C@H](Cc1ccc(O)cc1)NC(=O)[C@@H](NC(=O)[C@@H]1CCCN1C(=O)[C@H](CCCNC(=N)N)NC(=O)[C@H](CC(N)=O)NC(=O)[C@H](CC(N)=O)NC(=O)CN)C(C)C)C(=O)N1CCC[C@H]1C(=O)N[C@@H](CCC(N)=O)C(=O)N1CCC[C@H]1C(=O)N[C@@H](CCCNC(=N)N)C(=O)N1CCC[C@H]1C(=O)N1CCC[C@H]1C(=O)N[C@@H](Cc1c[nH]cn1)C(=O)N[C@@H](CS)C(=O)N[C@@H](CCCNC(=N)N)C(=O)N[C@@H](CC(C)C)C(N)=O [compound 61] (H-GNNRPVYIPQPRPPHCRL-NH2; N-terminus assumed),32,8,125,4,,0
